Where two headings read alike, the source gives them in different places.
What was measured:
Type in all cases: binding
[1] = target: T1, HeLa cell extract proteins (Homo sapiens, UniProt P52789)
T1 construct: endogenous in cells; host or cells: HeLa cell extract
T1 sequence (P52789 1-917): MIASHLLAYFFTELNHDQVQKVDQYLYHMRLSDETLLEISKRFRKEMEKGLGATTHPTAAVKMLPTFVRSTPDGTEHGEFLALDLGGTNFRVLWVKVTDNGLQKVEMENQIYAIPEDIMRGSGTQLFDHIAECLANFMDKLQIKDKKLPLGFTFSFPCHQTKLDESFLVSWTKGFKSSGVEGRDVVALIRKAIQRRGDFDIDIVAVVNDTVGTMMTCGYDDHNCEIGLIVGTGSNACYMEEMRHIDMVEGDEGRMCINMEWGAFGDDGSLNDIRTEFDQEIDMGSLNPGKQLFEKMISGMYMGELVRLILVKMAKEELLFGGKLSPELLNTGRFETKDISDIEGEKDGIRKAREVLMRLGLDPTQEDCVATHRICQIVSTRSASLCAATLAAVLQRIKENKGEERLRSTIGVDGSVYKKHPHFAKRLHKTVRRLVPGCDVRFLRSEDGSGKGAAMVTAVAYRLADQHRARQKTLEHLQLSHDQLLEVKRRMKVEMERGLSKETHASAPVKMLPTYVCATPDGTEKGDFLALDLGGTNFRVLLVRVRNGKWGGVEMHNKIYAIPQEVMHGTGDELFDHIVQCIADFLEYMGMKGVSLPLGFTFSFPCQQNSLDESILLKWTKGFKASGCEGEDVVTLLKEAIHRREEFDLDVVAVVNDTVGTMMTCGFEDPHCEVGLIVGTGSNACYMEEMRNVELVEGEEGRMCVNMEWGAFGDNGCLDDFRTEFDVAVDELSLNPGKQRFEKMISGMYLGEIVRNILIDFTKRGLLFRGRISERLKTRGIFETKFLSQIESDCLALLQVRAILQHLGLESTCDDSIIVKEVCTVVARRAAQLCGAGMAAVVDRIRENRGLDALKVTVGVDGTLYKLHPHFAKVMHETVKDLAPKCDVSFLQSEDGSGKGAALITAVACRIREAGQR

[2] = target: T2, HeLa cell extract proteins (Homo sapiens, UniProt P17844)
T2 construct: endogenous in cells; host or cells: HeLa cell extract

[3] = target: T3, HeLa cell extract proteins (Homo sapiens, UniProt Q14258)
T3 construct: endogenous in cells; host or cells: HeLa cell extract

[4] = target: T4, HeLa cell extract proteins (Homo sapiens, UniProt Q14247)
T4 construct: endogenous in cells; host or cells: HeLa cell extract
T4 sequence (Q14247 1-550): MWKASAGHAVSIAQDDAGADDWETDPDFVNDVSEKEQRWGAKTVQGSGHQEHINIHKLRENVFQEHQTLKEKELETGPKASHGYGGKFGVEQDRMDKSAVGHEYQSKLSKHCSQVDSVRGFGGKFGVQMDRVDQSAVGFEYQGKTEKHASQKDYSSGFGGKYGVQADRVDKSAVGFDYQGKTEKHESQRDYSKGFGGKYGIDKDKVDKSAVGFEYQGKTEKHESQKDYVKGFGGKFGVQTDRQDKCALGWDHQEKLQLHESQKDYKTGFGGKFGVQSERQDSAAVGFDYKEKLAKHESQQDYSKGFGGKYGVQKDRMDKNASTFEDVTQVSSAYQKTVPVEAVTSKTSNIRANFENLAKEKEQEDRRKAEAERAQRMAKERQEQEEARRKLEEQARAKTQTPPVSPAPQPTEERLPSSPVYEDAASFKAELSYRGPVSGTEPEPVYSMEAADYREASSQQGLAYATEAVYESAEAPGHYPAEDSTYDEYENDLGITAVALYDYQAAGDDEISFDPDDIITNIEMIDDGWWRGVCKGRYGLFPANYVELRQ

[5] = target: T5, HeLa cell extract proteins (Homo sapiens, UniProt Q99436)
T5 construct: endogenous in cells; host or cells: HeLa cell extract
T5 sequence (Q99436 44-277): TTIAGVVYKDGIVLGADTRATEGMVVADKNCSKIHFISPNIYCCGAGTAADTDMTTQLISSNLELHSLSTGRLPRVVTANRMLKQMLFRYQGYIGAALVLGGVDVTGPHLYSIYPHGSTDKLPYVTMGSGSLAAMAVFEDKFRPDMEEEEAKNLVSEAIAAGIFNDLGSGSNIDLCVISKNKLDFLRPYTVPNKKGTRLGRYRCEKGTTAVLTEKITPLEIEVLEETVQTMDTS

[6] = target: T6, HeLa cell extract proteins (Homo sapiens, UniProt P40763)
T6 construct: endogenous in cells; host or cells: HeLa cell extract

[7] = target: T7, HeLa cell extract proteins (Homo sapiens, UniProt Q7Z4G4)
T7 construct: endogenous in cells; host or cells: HeLa cell extract
T7 sequence (Q7Z4G4 1-463): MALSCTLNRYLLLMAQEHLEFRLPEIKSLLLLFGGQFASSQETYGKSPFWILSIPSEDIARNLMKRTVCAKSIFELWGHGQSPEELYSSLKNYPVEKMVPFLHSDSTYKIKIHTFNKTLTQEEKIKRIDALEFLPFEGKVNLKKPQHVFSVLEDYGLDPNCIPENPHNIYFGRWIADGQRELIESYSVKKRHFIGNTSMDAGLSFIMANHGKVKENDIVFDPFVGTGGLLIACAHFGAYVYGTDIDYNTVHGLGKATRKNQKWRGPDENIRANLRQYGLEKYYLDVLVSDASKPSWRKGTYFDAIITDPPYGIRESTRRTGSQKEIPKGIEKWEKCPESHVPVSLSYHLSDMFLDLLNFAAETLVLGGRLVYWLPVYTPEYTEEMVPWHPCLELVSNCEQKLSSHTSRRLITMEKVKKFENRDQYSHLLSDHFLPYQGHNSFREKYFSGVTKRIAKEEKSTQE

[8] = HeLa, protein DDX5 (PROBABLE ATP-DEPENDENT RNA HELICASE DDX5)
[9] = HeLa, protein PSMB7 ([…] BETA TYPE 7 PRECURSOR)

T3 sequence (Q14258 whole entry): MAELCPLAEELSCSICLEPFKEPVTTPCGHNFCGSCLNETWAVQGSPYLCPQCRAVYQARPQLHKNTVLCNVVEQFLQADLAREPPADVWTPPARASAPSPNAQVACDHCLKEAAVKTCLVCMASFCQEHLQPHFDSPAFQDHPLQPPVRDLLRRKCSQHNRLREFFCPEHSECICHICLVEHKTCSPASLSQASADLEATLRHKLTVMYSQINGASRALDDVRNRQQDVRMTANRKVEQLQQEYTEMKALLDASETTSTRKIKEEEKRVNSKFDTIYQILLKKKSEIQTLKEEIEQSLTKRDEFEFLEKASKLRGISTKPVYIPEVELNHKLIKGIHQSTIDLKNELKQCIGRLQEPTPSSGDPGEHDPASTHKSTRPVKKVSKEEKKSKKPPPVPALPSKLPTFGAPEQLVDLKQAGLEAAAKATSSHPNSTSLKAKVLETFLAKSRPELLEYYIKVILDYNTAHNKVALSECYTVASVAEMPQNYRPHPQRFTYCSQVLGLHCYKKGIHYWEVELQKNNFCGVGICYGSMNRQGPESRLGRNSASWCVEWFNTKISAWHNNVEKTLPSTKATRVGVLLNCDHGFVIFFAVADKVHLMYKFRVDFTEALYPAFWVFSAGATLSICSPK
T2 sequence (P17844 whole entry): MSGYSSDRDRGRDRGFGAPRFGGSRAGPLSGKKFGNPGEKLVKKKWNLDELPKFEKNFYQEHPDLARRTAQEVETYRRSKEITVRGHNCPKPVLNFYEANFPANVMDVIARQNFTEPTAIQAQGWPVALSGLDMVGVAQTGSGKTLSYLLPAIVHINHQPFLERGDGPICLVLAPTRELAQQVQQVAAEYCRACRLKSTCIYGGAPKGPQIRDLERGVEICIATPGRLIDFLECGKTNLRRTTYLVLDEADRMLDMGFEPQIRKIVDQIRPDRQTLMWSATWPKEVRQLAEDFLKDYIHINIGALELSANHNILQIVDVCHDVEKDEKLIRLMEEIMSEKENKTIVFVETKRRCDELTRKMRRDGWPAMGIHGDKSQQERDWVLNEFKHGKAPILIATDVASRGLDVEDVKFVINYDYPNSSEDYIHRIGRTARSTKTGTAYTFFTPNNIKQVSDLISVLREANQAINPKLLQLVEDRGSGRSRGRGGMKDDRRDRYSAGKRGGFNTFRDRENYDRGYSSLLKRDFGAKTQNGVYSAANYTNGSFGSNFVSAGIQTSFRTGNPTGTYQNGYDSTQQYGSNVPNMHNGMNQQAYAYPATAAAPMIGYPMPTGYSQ
T6 sequence (P40763 whole entry): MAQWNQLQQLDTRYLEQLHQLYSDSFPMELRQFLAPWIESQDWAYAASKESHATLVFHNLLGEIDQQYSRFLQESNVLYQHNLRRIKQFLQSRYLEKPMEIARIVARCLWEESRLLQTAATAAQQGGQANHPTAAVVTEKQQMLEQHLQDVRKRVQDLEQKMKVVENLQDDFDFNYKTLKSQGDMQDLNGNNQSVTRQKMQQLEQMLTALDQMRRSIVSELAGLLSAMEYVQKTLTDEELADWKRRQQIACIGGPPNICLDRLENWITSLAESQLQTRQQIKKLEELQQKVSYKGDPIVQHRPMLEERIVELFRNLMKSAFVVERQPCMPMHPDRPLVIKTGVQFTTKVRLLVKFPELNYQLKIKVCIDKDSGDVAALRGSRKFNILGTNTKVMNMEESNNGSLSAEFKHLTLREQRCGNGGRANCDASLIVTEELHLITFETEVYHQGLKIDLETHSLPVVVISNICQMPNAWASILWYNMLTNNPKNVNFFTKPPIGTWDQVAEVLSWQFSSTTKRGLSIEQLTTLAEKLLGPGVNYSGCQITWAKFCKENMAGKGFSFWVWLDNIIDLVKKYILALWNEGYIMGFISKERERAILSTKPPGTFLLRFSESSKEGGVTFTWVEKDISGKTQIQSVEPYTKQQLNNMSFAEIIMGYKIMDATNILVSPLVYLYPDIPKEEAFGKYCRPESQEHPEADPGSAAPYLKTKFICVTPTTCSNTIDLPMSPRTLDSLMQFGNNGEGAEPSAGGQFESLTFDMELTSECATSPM

Structure (SMILES)	fold changes relative to vehicle control ([1]; protein HK2, HeLa)	fold changes relative to vehicle control ([2]; HeLa, protein DDX5)	fold changes relative to vehicle control ([3]; HeLa, protein TRIM25)	fold changes relative to vehicle control ([4]; protein CTTN, HeLa)	fold changes relative to vehicle control ([5]; protein PSMB7, HeLa)	fold changes relative to vehicle control ([6]; protein STAT3, HeLa)	fold changes relative to vehicle control ([7]; HeLa, protein TRMT11)	fold changes relative to vehicle control [1]	fold changes relative to vehicle control [2]	fold changes relative to vehicle control [3]	fold changes relative to vehicle control [4]	fold changes relative to vehicle control [5]	fold changes relative to vehicle control [6]	fold changes relative to vehicle control [7]	fold changes relative to vehicle control ([1]; HeLa, protein HK2)	fold changes relative to vehicle control [2, 8]	fold changes relative to vehicle control ([3]; HeLa, captured protein TRIM25)	fold changes relative to vehicle control ([4]; HeLa, captured protein CTTN)	fold changes relative to vehicle control [5, 9]	fold changes relative to vehicle control ([7]; HeLa, captured protein TRMT11)
Nc1nc2cccc(-c3ccccc3)c2n1Cc1ccc(Cl)c(Cl)c1 [compound 3]	0.9	0.9	0.97	0.94	0.99	1.15	0.96	–	–	–	–	–	–	–	–	–	–	–	–	–
Nc1nc2[nH]cc(CCc3ccc(C(=O)N[C@@H](CCC(=O)O)C(=O)O)cc3)c2c(=O)[nH]1 [PTX, pemetrexed]	–	–	–	–	–	–	–	1.02	0.82	0.87	0.97	1.6	0.73	0.85	–	–	–	–	–	–
Nc1nc2c(c(=O)[nH]1)N(C=O)C(CNc1ccc(C(=O)N[C@@H](CCC(=O)O)C(=O)O)cc1)CN2 (stereo partly shown) [LEU, leucovorin]	–	–	–	–	–	0.81	–	–	–	–	–	–	–	–	1	0.88	0.98	0.99	1.19	1.15
CCCCCCOc1cccc(Cc2cnc(N)nc2N)c1 [compound 2]	1.43	1.12	1.07	1.18	1.28	1.1	1.19	–	–	–	–	–	–	–	–	–	–	–	–	–
NCCOCCOCC(=O)Nc1nc2ncc(CNc3ccc(C(=O)NC(CCC(=O)O)C(=O)O)cc3)nc2c(=O)[nH]1 (stereo not shown) [compound 6]	–	–	–	–	–	0.91	–	–	–	–	–	–	–	–	1.21	1.15	0.98	1.06	2.16	0.86
CCCCCCOc1ccc(Cc2cnc(N)nc2N)cc1 [compound 1]	1.11	0.92	0.9	1.04	1.17	0.87	1.13	–	–	–	–	–	–	–	–	–	–	–	–	–
NCCCNc1ccc(C(=O)NC(CCC(=O)O)C(=O)O)cc1 (stereo not shown) [compound 7]	–	–	–	–	–	1	–	–	–	–	–	–	–	–	1.03	0.93	0.94	0.96	1.08	1.07
